Source: ChEMBL document CHEMBL1201862, “PubChem BioAssay data set” (2004)
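Method: 48-hour compound exposure of cells in 96-well plates, five concentrations, linear interpolation of endpoints. Abbreviation: GI50, concentration required for 50% inhibition of growth.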 The source made the active and inactive calls. Cut-off read from the data, not from the text of the source: active = GI50 up to about 1.1 µM and inactive = higher.

Columns and labels:
Test in all cases: NCI anticancer screen, dose series, 48 h
SF-539 = test system: SF-539
RXF 393 = test system: RXF 393
LXFL 529 = test system: LXFL 529
IGROV-1 = test system: IGROV-1
KM12 = test system: KM12
SF-268 = test system: SF-268
K562 = test system: K562
TK-10 = test system: TK-10
OVCAR-4 = test system: OVCAR-4
NCI-H23 = test system: NCI-H23
NCI-H522 = test system: NCI-H522
CAKI-1 = test system: CAKI-1
DU-145 = test system: DU-145
T47D = test system: T47D
Hs-578T = test system: Hs-578T
BT-549 = test system: BT-549
PC-3 = test system: PC-3
MDA-MB-231 = test system: MDA-MB-231
NCI/ADR-RES = test system: NCI/ADR-RES
MDA-MB-435 = test system: MDA-MB-435

Row | Structure (SMILES) | GI50 (SF-539) | GI50 (RXF 393) | GI50 (LXFL 529) | GI50 (IGROV-1) | GI50 (KM12) | GI50 (SF-268) | GI50 (K562) | GI50 (TK-10) | GI50 (OVCAR-4) | GI50 (NCI-H23) | GI50 (NCI-H522) | GI50 (CAKI-1) | GI50 (DU-145) | GI50 (T47D) | GI50 (Hs-578T) | GI50 (BT-549) | GI50 (PC-3) | GI50 (MDA-MB-231) | GI50 (NCI/ADR-RES) | GI50 (MDA-MB-435)
1 | O=C1C(c2ccccc2)=[N+]([O-])c2cc([N+](=O)[O-])c(/C(Cl)=C/c3ccccc3)cc21 | 23.8 µM (inactive) | 22.9 µM (inactive) | > 10 µM (inactive) | 23.2 µM (inactive) | 22.8 µM (inactive) | 35.2 µM (inactive) | 13.8 µM (inactive) | 33.7 µM (inactive) | 13.1 µM (inactive) | 22.7 µM (inactive) | – | – | – | – | – | – | – | – | – | –
2 | COc1cccc(NC(=O)CC(=O)n2nc(C)c(/N=N/c3ccccc3)c2C)c1 | > 100 µM (inactive) | – | > 100 µM (inactive) | > 100 µM (inactive) | > 100 µM (inactive) | > 100 µM (inactive) | – | 85.7 µM (inactive) | > 100 µM (inactive) | > 100 µM (inactive) | > 100 µM (inactive) | > 100 µM (inactive) | – | – | – | – | – | – | – | –
3 | COC(=O)C12CC(c3ccccc31)C1C(=O)OC(=O)C12 (stereo not drawn) | > 100 µM (inactive) | > 100 µM (inactive) | > 100 µM (inactive) | > 100 µM (inactive) | > 100 µM (inactive) | > 100 µM (inactive) | > 100 µM (inactive) | > 100 µM (inactive) | > 100 µM (inactive) | > 100 µM (inactive) | > 100 µM (inactive) | – | – | – | – | – | – | – | – | –
4 | O=C1CCCCc2cccc(O)c21 | > 100 µM (inactive) | > 100 µM (inactive) | – | > 100 µM (inactive) | > 100 µM (inactive) | > 100 µM (inactive) | > 100 µM (inactive) | > 100 µM (inactive) | > 100 µM (inactive) | > 100 µM (inactive) | > 100 µM (inactive) | > 100 µM (inactive) | > 100 µM (inactive) | > 100 µM (inactive) | > 100 µM (inactive) | > 100 µM (inactive) | > 100 µM (inactive) | > 100 µM (inactive) | > 100 µM (inactive) | > 100 µM (inactive)
5 | COc1cc2c(cc1OC)C(Cl)C(c1ccc(Cl)cc1)=C2Cl (stereo not drawn) | 17.1 µM (inactive) | – | 4.23 µM (inactive) | 19.3 µM (inactive) | – | > 10 µM (inactive) | 7.66 µM (inactive) | 19.6 µM (inactive) | – | 14.2 µM (inactive) | 12 µM (inactive) | 17.3 µM (inactive) | – | – | – | – | – | – | – | –
6 | COc1c2occc2c(N)c2ccc(=O)oc12 | 75.2 µM (inactive) | 15.3 µM (inactive) | – | > 100 µM (inactive) | > 100 µM (inactive) | > 100 µM (inactive) | > 100 µM (inactive) | > 100 µM (inactive) | > 100 µM (inactive) | > 100 µM (inactive) | 75 µM (inactive) | > 100 µM (inactive) | > 100 µM (inactive) | > 100 µM (inactive) | > 100 µM (inactive) | > 100 µM (inactive) | > 100 µM (inactive) | > 100 µM (inactive) | > 100 µM (inactive) | > 100 µM (inactive)
7 | Cc1cc(S(=O)(=O)Nc2nc3ccccc3nc2-c2cccc([N+](=O)[O-])c2)c(S)cc1Cl | 22.8 µM (inactive) | 33.7 µM (inactive) | – | 13.2 µM (inactive) | 15.6 µM (inactive) | 25.9 µM (inactive) | 26 µM (inactive) | 35.2 µM (inactive) | 27.5 µM (inactive) | 17.1 µM (inactive) | 16.8 µM (inactive) | 18.3 µM (inactive) | 18.5 µM (inactive) | 17.2 µM (inactive) | 23.6 µM (inactive) | 38.7 µM (inactive) | 19.7 µM (inactive) | 58.5 µM (inactive) | 19.9 µM (inactive) | 19.8 µM (inactive)
8 | CC1=C(C(=O)Nc2ccccc2)C2(CCCCC2)C(C#N)=C(SCC(=O)Nc2ccc(Br)cc2)N1 | 13.3 µM (inactive) | 4.54 µM (inactive) | – | 3.34 µM (inactive) | 3.2 µM (inactive) | 2.2 µM (inactive) | 3.34 µM (inactive) | 6.58 µM (inactive) | 4.91 µM (inactive) | 4.1 µM (inactive) | 2.06 µM (inactive) | 4.76 µM (inactive) | 7.76 µM (inactive) | 5.19 µM (inactive) | 3.57 µM (inactive) | 8.15 µM (inactive) | 2.88 µM (inactive) | 7.33 µM (inactive) | 3.88 µM (inactive) | 4.47 µM (inactive)
9 | O=C1NC2(CCNCC2)Oc2ccccc21 | > 100 µM (inactive) | 64.1 µM (inactive) | – | > 100 µM (inactive) | > 100 µM (inactive) | > 100 µM (inactive) | > 100 µM (inactive) | > 100 µM (inactive) | > 100 µM (inactive) | > 100 µM (inactive) | > 100 µM (inactive) | > 100 µM (inactive) | > 100 µM (inactive) | > 100 µM (inactive) | > 100 µM (inactive) | > 100 µM (inactive) | > 100 µM (inactive) | > 100 µM (inactive) | > 100 µM (inactive) | > 100 µM (inactive)
10 | CC(C)=CC[S+]([O-])c1ccccc1NC1=CC(=O)CC(C)(C)C1 (stereo not drawn) | > 100 µM (inactive) | > 100 µM (inactive) | – | > 100 µM (inactive) | > 100 µM (inactive) | > 100 µM (inactive) | > 100 µM (inactive) | > 100 µM (inactive) | > 100 µM (inactive) | > 100 µM (inactive) | > 100 µM (inactive) | > 100 µM (inactive) | > 100 µM (inactive) | > 100 µM (inactive) | > 100 µM (inactive) | > 100 µM (inactive) | > 100 µM (inactive) | > 100 µM (inactive) | > 100 µM (inactive) | > 100 µM (inactive)
11 | O=C1/C(=C/c2ccccc2)CN(C(=O)Oc2ccc(Cl)cc2)C/C1=C\c1ccccc1 | 2.36 µM (inactive) | 2.17 µM (inactive) | 1.72 µM (inactive) | 3.05 µM (inactive) | 1.49 µM (inactive) | 2.99 µM (inactive) | 1.76 µM (inactive) | 5.21 µM (inactive) | 0.887 µM (active) | 3.22 µM (inactive) | 2.25 µM (inactive) | – | – | – | – | – | – | – | – | –
12 | Nc1nc(SCC(=O)O)nc(O)c1N | > 100 µM (inactive) | > 100 µM (inactive) | – | > 100 µM (inactive) | > 100 µM (inactive) | > 100 µM (inactive) | 13.6 µM (inactive) | > 100 µM (inactive) | 50.9 µM (inactive) | > 100 µM (inactive) | > 100 µM (inactive) | > 100 µM (inactive) | > 100 µM (inactive) | > 100 µM (inactive) | > 100 µM (inactive) | > 100 µM (inactive) | > 100 µM (inactive) | > 100 µM (inactive) | > 100 µM (inactive) | 32.3 µM (inactive)
13 | COc1cc(Nc2cc(Cl)cc(Cl)c2)nc(N)n1 | 15.7 µM (inactive) | 14.5 µM (inactive) | – | 18.6 µM (inactive) | 17.1 µM (inactive) | 19.5 µM (inactive) | 30.7 µM (inactive) | 21.6 µM (inactive) | 17.9 µM (inactive) | 20.3 µM (inactive) | 20.4 µM (inactive) | 20.4 µM (inactive) | 18.8 µM (inactive) | 24.6 µM (inactive) | 26.2 µM (inactive) | 17.1 µM (inactive) | 20.8 µM (inactive) | 18.9 µM (inactive) | 20.5 µM (inactive) | 24.5 µM (inactive)
14 | NCCCN(CCCCN(CCCN)C(=O)OCc1ccccc1)C(=O)OCc1ccccc1 | > 100 µM (inactive) | 98.6 µM (inactive) | – | 24.2 µM (inactive) | > 100 µM (inactive) | 35.3 µM (inactive) | 37.9 µM (inactive) | > 100 µM (inactive) | > 100 µM (inactive) | > 100 µM (inactive) | 28.5 µM (inactive) | > 100 µM (inactive) | > 100 µM (inactive) | > 100 µM (inactive) | 20.6 µM (inactive) | > 100 µM (inactive) | 45.8 µM (inactive) | 35.6 µM (inactive) | > 100 µM (inactive) | > 100 µM (inactive)
15 | CCOC(=O)c1ccc(/N=C2\SC(=S)N(c3ccc(F)cc3)\C2=N/c2ccc(C(=O)OCC)cc2)cc1 | 20 µM (inactive) | 9.68 µM (inactive) | – | 14.4 µM (inactive) | 24.8 µM (inactive) | 7.4 µM (inactive) | 12.3 µM (inactive) | 18.9 µM (inactive) | 12.1 µM (inactive) | 17.8 µM (inactive) | 5.97 µM (inactive) | 21.9 µM (inactive) | 39.2 µM (inactive) | 5.19 µM (inactive) | 13.9 µM (inactive) | 12.6 µM (inactive) | 13.5 µM (inactive) | 7.8 µM (inactive) | 17 µM (inactive) | 17.9 µM (inactive)
16 | COC(=O)c1ccc(/N=N/N(C)CO)cc1 | 57.4 µM (inactive) | 59.6 µM (inactive) | 43.6 µM (inactive) | > 100 µM (inactive) | > 100 µM (inactive) | – | 68.4 µM (inactive) | > 100 µM (inactive) | 55.8 µM (inactive) | > 100 µM (inactive) | > 100 µM (inactive) | – | – | – | – | – | – | – | – | –
17 | CC(=O)OC(C)c1cc2c(s1)C(=O)c1sccc1C2=O (stereo not drawn) | 0.268 µM (active) | 1.56 µM (inactive) | – | 2.02 µM (inactive) | 1.75 µM (inactive) | 0.989 µM (active) | 2.69 µM (inactive) | 1.85 µM (inactive) | 1.96 µM (inactive) | 0.221 µM (active) | 1.27 µM (inactive) | 3.14 µM (inactive) | 0.416 µM (active) | 2.58 µM (inactive) | 0.807 µM (active) | 0.7 µM (active) | 2.19 µM (inactive) | 1.34 µM (inactive) | 1.71 µM (inactive) | 0.192 µM (active)
18 | Cc1ccccc1NC(=O)CSc1nnc(-c2ccc(/N=C\c3ccc(Cl)cc3)cc2)o1 | – | > 100 µM (inactive) | > 100 µM (inactive) | – | > 100 µM (inactive) | > 100 µM (inactive) | > 100 µM (inactive) | > 100 µM (inactive) | > 100 µM (inactive) | > 100 µM (inactive) | – | – | – | – | – | – | – | – | – | –
